In US20220306986A1, “NON-INVASIVE METHODS FOR SELECTIVELY ENRICHING PLURIPOTENT CELLS” (MEMORIAL SLOAN-KETTERING CANCER CENTER, priority 2019, published 2022):

Columns and labels:
Format in all cases: cell-based, mouse
[1] = test system: ESCs; assay: Colony formation assay (alkaline phosphatase staining) after pulse treatment
Method: For transient glutamine withdrawal (“pulse”) experiments, cells were initially plated in standard S/L medium as described above. The following day, cells were washed with PBS and then changed to experimental medium containing a 1:1 mix of glutamine-free DMEM and glutamine-free Neurobasal medium including 10% dialyzed FBS, 2-mercaptoethanol, LIF, and containing (“Ctrl”) or lacking (“Pulse”) L-glutamine as indicated. 24 hours later, cells were washed with PBS and then returned to glutamine-replete medium (“Recover”). 24 hours later, cells were subjected to either image analysis, flow cytometry, or plated for colony formation assays as indicated. For glutamine pulse experiments in human ESCs, cells were initially plated at a density of 300,000 cells/well in a tissue-culture treated polystyrene 12-well plate coated with vitronectin (Thermo Fisher Scientific, A14700) in E8 medium (Thermo Fisher Scientific, A1517001) containing 10 uM ROCK inhibitor Y-27632 (Selleck Chemicals S1049). 24 hrs after plating, medium was changed to modified E8 medium containing: DMEM high glucose without glutamine (Thermo Fisher 11960044), 10.7 mg/L Transferrin (Sigma T0665), 64 mg/L L-Ascorbic Acid (Sigma A890), 14 ug/L Sodium Selenite (Sigma S5261), 543 mg/L Sodium Bicarbonate (Research Products International 144558), 19.4 mg/L insulin (Sigma 19278), 100 ug/L bFGF (EMD Millipore GF003AF), 2 ug/L TGFβ1 (Peprotech 10021), and 2 mM L-glutamine. After 24 hrs of culture in modified E8 medium, medium was changed to modified E8 medium containing 2 mM or 0 mM L-glutamine for 24 hrs. All cells were then changed to modified E8 medium containing 2 mM L-glutamine and cultured for 24 hrs before harvest for analysis. […] For ESC colony formation assays, colonies were scored manually in a blinded fashion. For reprogramming experiments, alkaline-phosphatase colonies were scored automatically using ImageJ (NIH). Briefly, images of each well were binarized using the Default function and particles greater than 8 pixels with a circularity of 0.7-1.0 were counted.

[2] = test system: ESCs; assay: Glutamine deprivation: growth curves, viability and colony formation; conditions: DM-αKG 4 mM
Method: For glutamine deprivation experiments in mouse ESCs, cells were initially plated in standard S/L medium as described above. The following day, cells were washed with PBS and then cultured in experimental medium containing a 1:1 mix of glutamine-free DMEM (Gibco 11960-051) and glutamine-free Neurobasal medium (Gibco 21103-049) including 10% dialyzed FBS, 2-mercaptoethanol, and LIF as described above and containing (“+Q”) or lacking (“−Q”) L-glutamine (2 mM) as indicated. When indicated, dimethyl-α-ketoglutarate (Sigma 349631) dissolved in DMSO was added to a final concentration of 4 mM. […]
ESCs were seeded at a density of 30,000-40,000 cells per well of a 12-well plate. The following day, three wells of each line were counted to determine the starting cell number. […] Cells were counted on the indicated days thereafter using a Beckman Multisizer 4e with a cell volume gate of 400-10,000 fL. […]
Evaluation of cell viability and Nanog-GFP expression. […] Cells were evaluated for GFP and DAPI on either a LSRFortessa or LSR-II machine and FACSDiva software ([…] Dickinson). […] Nanog-GFP expression was measured by GFP mean fluorescence intensity and quantified using FlowJo v9.0. […]

[3] = test system: Nanog-GFP ESCs; assay: Nanog-GFP expression by flow cytometry after pulse treatment; conditions: 24 h pulse in glutamine-containing S/L medium, 24 h recovery; FIG. 7E-7F
Method: For transient glutamine withdrawal (“pulse”) experiments, cells were initially plated in standard S/L medium as described above. The following day, cells were washed with PBS and then changed to experimental medium containing a 1:1 mix of glutamine-free DMEM and glutamine-free Neurobasal medium including 10% dialyzed FBS, 2-mercaptoethanol, LIF, and containing (“Ctrl”) or lacking (“Pulse”) L-glutamine as indicated. 24 hours later, cells were washed with PBS and then returned to glutamine-replete medium (“Recover”). 24 hours later, cells were subjected to either image analysis, flow cytometry, or plated for colony formation assays as indicated. For glutamine pulse experiments in human ESCs, cells were initially plated at a density of 300,000 cells/well in a tissue-culture treated polystyrene 12-well plate coated with vitronectin (Thermo Fisher Scientific, A14700) in E8 medium (Thermo Fisher Scientific, A1517001) containing 10 uM ROCK inhibitor Y-27632 (Selleck Chemicals S1049). […] Cells were evaluated for GFP and DAPI on either a LSRFortessa or LSR-II machine and FACSDiva software ([…] Dickinson). […] Nanog-GFP expression was measured by GFP mean fluorescence intensity and quantified using FlowJo v9.0. […]

benefit of the glutamine withdrawal pulse on self-renewal (colony formation) ([1]; 4 mM DM-αKG added during 24 h glutamine withdrawal, FIG. 3H): abrogated the benefit of the pulse | self-renewal capacity of the ESC population after pulsed treatment (colony formation) ([1]; 24 h pulse, 24 h recovery before plating, FIG. 3G, 7G): no durable effect
Compound: COC(=O)CCC(=O)C(=O)OC [cell-permeable αKG, dimethyl-α-ketoglutarate]
survival and proliferation in the absence of glutamine (population doublings) ([2]; 48 h glutamine-free medium, FIG. 2G, 2H): capable of rescuing survival and proliferation in the absence of glutamine | proliferation, viability and self-renewal of ESCs under glutamine withdrawal ([2]; S/L culture, FIG. 2A, 6A-6B): sufficient to compensate for glutamine withdrawal | Nanog-GFP expression after pulsed treatment [3]: transiently increase Nanog-GFP expression
